According to patent US12077503B2, “Substituted cyclic amides and their use as herbicides” (FMC CORPORATION, priority 2015, dated 2024):

How the values were obtained:
Format in all cases: in vivo
[1] = system: ryegrass, Italian (Italian ryegrass, Lolium multiflorum); experiment: Test A preemergence; details: Lolium multiflorum, pre-emergence, 240 h, 0 to 100 scale where 0 is no effect and 100 is complete control, read-out: Ryegrass, Italian plant response rating; for pest or weed control at 31 g/ha: 31 g ai/ha, Preemergence; for pest or weed control at 125 g/ha: 125 g ai/ha, preemergence, approx. 10 d
Method in brief: (§1)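 Each rating is a visual injury score from 0 to 100 given about 10 d after treatment, judged against untreated controls kept alongside in the greenhouse. In loam soil–sand blend, seeds got a preemergence directed soil spray, while postemergence plants were 2 to 10 cm tall at spraying.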

[2] = system: ragweed (common ragweed, Ambrosia elatior); experiment: Test A preemergence; details: Ambrosia artemisiifolia, pre-emergence, 240 h, 0 to 100 scale where 0 is no effect and 100 is complete control, read-out: Ragweed plant response rating; for pest or weed control at 31 g/ha: 31 g ai/ha, Preemergence; for pest or weed control at 125 g/ha: 125 g ai/ha, preemergence, approx. 10 d
Method in brief: as §1

[3] = system: pigweed (Amaranthus retroflexus); experiment: Test A preemergence; details: Amaranthus retroflexus, pre-emergence, 240 h, 0 to 100 scale where 0 is no effect and 100 is complete control, read-out: Pigweed plant response rating; for pest or weed control at 31 g/ha: 31 g ai/ha, Preemergence; for pest or weed control at 125 g/ha: 125 g ai/ha, preemergence, approx. 10 d
[4] = system: giant foxtail (Setaria faberii); experiment: Test A preemergence; details: Setaria faberi, pre-emergence, 240 h, 0 to 100 scale where 0 is no effect and 100 is complete control, read-out: Foxtail, Giant plant response rating; for pest or weed control at 31 g/ha: 31 g ai/ha, Preemergence; for pest or weed control at 125 g/ha: 125 g ai/ha, preemergence, approx. 10 d
Method in brief: as §1

[5] = system: barnyardgrass (Echinochloa crus-galli); experiment: Test A preemergence; details: Echinochloa crus-galli, pre-emergence, 240 h, 0 to 100 scale where 0 is no effect and 100 is complete control, read-out: Barnyardgrass plant response rating; for pest or weed control at 31 g/ha: 31 g ai/ha, Preemergence; for pest or weed control at 125 g/ha: 125 g ai/ha, preemergence, approx. 10 d
Method in brief: as §1

Kochia (Kochia scoparia) [6] = experiment: Test A preemergence; details: Bassia scoparia, pre-emergence, 240 h, 0 to 100 scale where 0 is no effect and 100 is complete control, read-out: Kochia plant response rating; for pest or weed control at 31 g/ha: 31 g ai/ha, Preemergence; for pest or weed control at 125 g/ha: 125 g ai/ha, preemergence, approx. 10 d
Method in brief: as §1

[7] = system: ryegrass, Italian (Italian ryegrass, Lolium multiflorum); experiment: Test A postemergence; details: Lolium multiflorum, post-emergence, 240 h; for pest or weed control at 125 g/ha: 125 g ai/ha, postemergence, visual injury on 0 to 100 scale (0 no effect, 100 complete control), approx. 10 d, read-out: Ryegrass, Italian plant response rating; for pest or weed control at 31 g/ha: Postemergence, 31 g ai/ha, visual injury after approx. 10 d, 0 to 100 scale, 0 no effect, 100 complete control, read-out: Plant response rating, Ryegrass, Italian
Method in brief: as §1

corn (Zea mays) = experiment: Test A postemergence; details: Zea mays, post-emergence, 240 h; for plant injury at 125 g/ha: 125 g ai/ha, postemergence, visual injury on 0 to 100 scale (0 no effect, 100 complete control), approx. 10 d, read-out: Corn plant response rating; for Corn plant response rating (crop injury, 0 = no effect, 100 = complete kill) at 31 g/ha: Postemergence, 31 g ai/ha, visual injury after approx. 10 d, 0 to 100 scale, 100 complete control
Method in brief: as §1

[8] = system: Galium (catchweed bedstraw, Galium aparine); experiment: Test A postemergence; details: Galium, post-emergence, 240 h; for pest or weed control at 125 g/ha: 125 g ai/ha, postemergence, visual injury on 0 to 100 scale (0 no effect, 100 complete control), approx. 10 d, read-out: Galium plant response rating; for pest or weed control at 31 g/ha: Postemergence, 31 g ai/ha, visual injury after approx. 10 d, 0 to 100 scale, 0 no effect, 100 complete control, read-out: Plant response rating, Galium
Method in brief: as §1

[9] = system: ragweed (common ragweed, Ambrosia elatior); experiment: Test A postemergence; details: Ambrosia artemisiifolia, post-emergence, 240 h; for pest or weed control at 125 g/ha: 125 g ai/ha, postemergence, visual injury on 0 to 100 scale (0 no effect, 100 complete control), approx. 10 d, read-out: Ragweed plant response rating; for pest or weed control at 31 g/ha: Postemergence, 31 g ai/ha, visual injury after approx. 10 d, 0 to 100 scale, 0 no effect, 100 complete control, read-out: Plant response rating, Ragweed
Method in brief: as §1

[10] = system: wheat (Triticum aestivum); experiment: Test A postemergence; details: Triticum aestivum, post-emergence, 240 h; for plant injury at 125 g/ha: 125 g ai/ha, postemergence, visual injury on 0 to 100 scale (0 no effect, 100 complete control), approx. 10 d, read-out: Wheat plant response rating; for plant injury at 31 g/ha: Postemergence, 31 g ai/ha, visual injury after approx. 10 d, 0 to 100 scale, 0 no effect, 100 complete control, read-out: Plant response rating, Wheat
Method in brief: as §1

[11] = system: pigweed (Amaranthus retroflexus); experiment: Test A postemergence; details: Amaranthus retroflexus, post-emergence, 240 h; for pest or weed control at 125 g/ha: 125 g ai/ha, postemergence, visual injury on 0 to 100 scale (0 no effect, 100 complete control), approx. 10 d, read-out: Pigweed plant response rating; for pest or weed control at 31 g/ha: Postemergence, 31 g ai/ha, visual injury after approx. 10 d, 0 to 100 scale, 0 no effect, 100 complete control, read-out: Plant response rating, Pigweed
Method in brief: as §1

[12] = system: blackgrass (Alopecurus myosuroides); experiment: Test A postemergence; details: Alopecurus myosuroides, post-emergence, 240 h; for pest or weed control at 125 g/ha: 125 g ai/ha, postemergence, visual injury on 0 to 100 scale (0 no effect, 100 complete control), approx. 10 d, read-out: Blackgrass plant response rating; for pest or weed control at 31 g/ha: Postemergence, 31 g ai/ha, visual injury after approx. 10 d, 0 to 100 scale, 0 no effect, 100 complete control, read-out: Plant response rating, Blackgrass
Method in brief: as §1

[13] = system: giant foxtail (Setaria faberii); experiment: Test A postemergence; details: Setaria faberi, post-emergence, 240 h; for pest or weed control at 125 g/ha: 125 g ai/ha, postemergence, visual injury on 0 to 100 scale (0 no effect, 100 complete control), approx. 10 d, read-out: Foxtail, Giant plant response rating; for pest or weed control at 31 g/ha: Postemergence, 31 g ai/ha, visual injury after approx. 10 d, 0 to 100 scale, 0 no effect, 100 complete control, read-out: Plant response rating, Foxtail, Giant
Method in brief: as §1

[14] = system: barnyardgrass (Echinochloa crus-galli); experiment: Test A postemergence; details: Echinochloa crus-galli, post-emergence, 240 h; for pest or weed control at 125 g/ha: 125 g ai/ha, postemergence, visual injury on 0 to 100 scale (0 no effect, 100 complete control), approx. 10 d, read-out: Barnyardgrass plant response rating; for pest or weed control at 31 g/ha: Postemergence, 31 g ai/ha, visual injury after approx. 10 d, 0 to 100 scale, 0 no effect, 100 complete control, read-out: Plant response rating, Barnyardgrass
Method in brief: as §1

Kochia (Kochia scoparia) [15] = experiment: Test A postemergence; details: Bassia scoparia, post-emergence, 240 h; for pest or weed control at 125 g/ha: 125 g ai/ha, postemergence, visual injury on 0 to 100 scale (0 no effect, 100 complete control), approx. 10 d, read-out: Kochia plant response rating; for pest or weed control at 31 g/ha: Postemergence, 31 g ai/ha, visual injury after approx. 10 d, 0 to 100 scale, 0 no effect, 100 complete control, read-out: Plant response rating, Kochia
Method in brief: as §1

[16] = system: ducksalad (Heteranthera limosa); experiment: Test B flooded paddy test; details: Heteranthera limosa, 250 g ai/ha, Flood; 0 to 100 scale where 0 is no effect and 100 is complete control; read-out: Ducksalad plant response rating
Method in brief: (§2)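 Percent control, visually estimated after 13–15 d in the greenhouse on a 0–100 basis, compares treated pots with untreated ones; compound was put into paddy water 3 cm above the soil when plants had two leaves.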

rice (Oryra sativa) = experiment: Test B flooded paddy test; details: Oryza sativa, 250 g ai/ha, Flood; 0 to 100 scale where 0 is no effect and 100 is complete control; read-out: Rice plant response rating
Method in brief: as §2

[17] = system: sedge, umbrella (small-flower umbrella sedge, Cyperus difformis); experiment: Test B flooded paddy test; details: Cyperus difformis, 250 g ai/ha, Flood; 0 to 100 scale where 0 is no effect and 100 is complete control; read-out: Sedge, Umbrella plant response rating
Method in brief: as §2

[18] = system: barnyardgrass (Echinochloa crus-galli); experiment: Test B flooded paddy test; details: Echinochloa crus-galli, 250 g ai/ha, Flood; 0 to 100 scale where 0 is no effect and 100 is complete control; read-out: Barnyardgrass plant response rating
Method in brief: as §2

Compound `O=C1NC[C@H](c2ccc(C(F)(F)F)cn2)[C@H]1C(=O)Nc1ccc(F)c(F)c1F` [Compound 1105] has a pest or weed control at 31 g/ha [1] of 0%, a pest or weed control at 125 g/ha [1] of 0% and a pest or weed control at 31 g/ha [2] of 0%. For the same compound, the pest or weed control at 125 g/ha [2] was 20%, the pest or weed control at 31 g/ha [3] was 0% and the pest or weed control at 125 g/ha [3] was 0%. The pest or weed control at 31 g/ha [4] was 20%, the pest or weed control at 125 g/ha [4] was 90% and the pest or weed control at 31 g/ha [5] was 30%. The pest or weed control at 125 g/ha [5] was 60%, the pest or weed control at 31 g/ha (Kochia (Kochia scoparia) [6]) was 0% and the pest or weed control at 125 g/ha (Kochia (Kochia scoparia) [6]) was 70%. The pest or weed control at 125 g/ha [7] was 0%, the pest or weed control at 31 g/ha [7] was 0% and the plant injury at 125 g/ha (corn (Zea mays)) was 0%. For the same compound, the Corn plant response rating (crop injury, 0 = no effect, 100 = complete kill) at 31 g/ha (corn (Zea mays)) was 0%, the pest or weed control at 125 g/ha [8] was 40% and the pest or weed control at 31 g/ha [8] was 30%. The pest or weed control at 125 g/ha [9] was 0%, the pest or weed control at 31 g/ha [9] was 0% and the plant injury at 125 g/ha [10] was 0%. The plant injury at 31 g/ha [10] was 0%, the pest or weed control at 125 g/ha [11] was 0% and the pest or weed control at 31 g/ha [11] was 0%. For the same compound, the pest or weed control at 125 g/ha [12] was 0%, the pest or weed control at 31 g/ha [12] was 0% and the pest or weed control at 125 g/ha [13] was 50%. For the same compound, the pest or weed control at 31 g/ha [13] was 0%, the pest or weed control at 125 g/ha [14] was 30% and the pest or weed control at 31 g/ha [14] was 0%. It also gave a pest or weed control at 125 g/ha (Kochia (Kochia scoparia) [15]) of 20%, a pest or weed control at 31 g/ha (Kochia (Kochia scoparia) [15]) of 0% and a pest or weed control at 250 g/ha [16] of 100%. It also gave a pest or weed control at 250 g/ha (rice (Oryra sativa)) of 20%, a pest or weed control at 250 g/ha [17] of 0% and a pest or weed control at 250 g/ha [18] of 50%.

In the case of `CN1C[C@H](c2ccc(C(F)(F)F)nc2)[C@@](C)(C(=O)Nc2ccc(F)c(F)c2F)C1=O` [Compound 1110], the pest or weed control at 31 g/ha [1] was 30%, the pest or weed control at 125 g/ha [1] was 50% and the pest or weed control at 31 g/ha [2] was 0%. For the same compound, the pest or weed control at 125 g/ha [2] was 40%, the pest or weed control at 31 g/ha [3] was 60% and the pest or weed control at 125 g/ha [3] was 90%. For the same compound, the pest or weed control at 31 g/ha [4] was 90%, the pest or weed control at 125 g/ha [4] was 100% and the pest or weed control at 31 g/ha [5] was 90%. It also gave a pest or weed control at 125 g/ha [5] of 100%, a pest or weed control at 31 g/ha (Kochia (Kochia scoparia) [6]) of 0% and a pest or weed control at 125 g/ha (Kochia (Kochia scoparia) [6]) of 70%. The pest or weed control at 125 g/ha [7] was 60%, the pest or weed control at 31 g/ha [7] was 40% and the plant injury at 125 g/ha (corn (Zea mays)) was 80%. For the same compound, the Corn plant response rating (crop injury, 0 = no effect, 100 = complete kill) at 31 g/ha (corn (Zea mays)) was 30%, the pest or weed control at 125 g/ha [8] was 50% and the pest or weed control at 31 g/ha [8] was 20%. For the same compound, the pest or weed control at 125 g/ha [9] was 30%, the pest or weed control at 31 g/ha [9] was 0% and the plant injury at 125 g/ha [10] was 70%. For the same compound, the plant injury at 31 g/ha [10] was 30%, the pest or weed control at 125 g/ha [11] was 50% and the pest or weed control at 31 g/ha [11] was 20%. It also gave a pest or weed control at 125 g/ha [12] of 60%, a pest or weed control at 31 g/ha [12] of 0% and a pest or weed control at 125 g/ha [13] of 90%. For the same compound, the pest or weed control at 31 g/ha [13] was 60%, the pest or weed control at 125 g/ha [14] was 90% and the pest or weed control at 31 g/ha [14] was 80%. The pest or weed control at 125 g/ha (Kochia (Kochia scoparia) [15]) was 70%, the pest or weed control at 31 g/ha (Kochia (Kochia scoparia) [15]) was 30% and the pest or weed control at 250 g/ha [16] was 100%. It also gave a pest or weed control at 250 g/ha (rice (Oryra sativa)) of 50%, a pest or weed control at 250 g/ha [17] of 0% and a pest or weed control at 250 g/ha [18] of 90%.
